Experimental data reported in patent EP0190900A2, “Cephalosporin compounds, their production, and pharmaceutical compositions containing them” (YAMANOUCHI PHARMACEUTICAL CO. LTD., priority 1985, dated 1986).
≈ marks a conversion by molar mass, not a printed value.

Columns and labels:
[1] = tested on: S. epidermidis IID 866; experiment: Antibacterial activity (minimum effective inhibitory concentration); format: cell-based; details: Staphylococcus epidermidis, IID866
Description: (§1) Antibacterial activities (minimum effective inhibitory concentrations) of compounds of formula I (taken from the following Examples) are shown in the following Table.

[2] = tested on: K. pneumoniae ATCC 10031; experiment: as above; format: cell-based; details: Klebsiella pneumoniae, ATCC10031
Description: as §1

[3] = tested on: P. aeruginosa NCTC 10490; experiment: as above; format: cell-based; details: Pseudomonas aeruginosa, NCTC10490
Description: as §1

[4] = tested on: S. aureus FDA 209P JC-1; experiment: as above; format: cell-based; details: Staphylococcus aureus, FDA209P
Description: as §1

[5] = tested on: E. coli D-1; experiment: as above; format: cell-based; details: Escherichia coli, D1
Description: as §1

[6] = Acute toxicity, intravenous injection into mice; format: in vivo
Method: Some of the compounds of this invention have low toxicity (acute toxicity).
The compound of Example 4 has, in particular, low toxicity.
200 mg of /the compound of Example 4 was dissolved in 2 ml of distilled water and after adjusting the pH of the solution to about 7 by addition of sodium hydrogen carbonate to form an injection solution, the solution was intravenously injected into mice (body weights: 26-28 g; ICR ? 5W) over a period of 4 minutes at a rate of 1 ml/kg. There were no lethal cases for administration doses below 4.0 g/kg.

| Structure (SMILES) | MIC [1] [µg/mL] | MIC [2] [µg/mL] | MIC [3] [µg/mL] | MIC [4] [µg/mL] | MIC [5] [µg/mL] | administration doses with no lethal cases ([6]; ICR mice (26-28 g), intravenous injection over 4 minutes, aqueous solution at about pH 7) | toxicity (acute toxicity) ([6]; statement in words) |
| --- | --- | --- | --- | --- | --- | --- | --- |
| CO/N=C(\C(=O)N[C@@H]1C(=O)N2C(C(=O)O)=C(CSc3nnnn3C)CS[C@H]12)c1csc(N)n1 [Cefmeno-xime] | 0.39 (≈ 0.762 µM) | ≤ 0.006 | 0.2 (≈ 0.391 µM) | 1.56 (≈ 3.05 µM) | 0.025 (≈ 0.0489 µM) |  |  |
| CO/N=C(\C(=O)N[C@@H]1C(=O)N2C(C(=O)[O-])=C(CSc3cc[n+](CC#N)cc3)CS[C@H]12)c1csc(N)n1 [Example 1, (Z)-7-[α-(2-amino-4-thiazolyl)-α-(methoxyimino)acetamido]-3-(1-cyanomethyl-4-pyridinio)thiomethyl-Δ^3-cephem-4-carboxylate] | 0.1 (≈ 0.183 µM) | 0.013 (≈ 0.0238 µM) | 0.39 (≈ 0.715 µM) | 0.2 (≈ 0.367 µM) | 0.013 (≈ 0.0238 µM) |  |  |
| CO/N=C(\C(=O)N[C@@H]1C(=O)N2C(C(=O)[O-])=C(CSc3cc[n+](CC(C)=O)cc3)CS[C@H]12)c1csc(N)n1 [Example 4, (Z)-7-[α-(2-amino-4-thiazolyl)-α-(methoxyimino)acetamido]-3-[1-acetonyl-4-pyridinio)thiomethyl-Δ^3-cephem-4-carboxylate] | 0.1 (≈ 0.178 µM) | ≤ 0.006 | 0.2 (≈ 0.355 µM) | 0.2 (≈ 0.355 µM) | ≤ 0.006 | below 4.0 g/kg | low toxicity |
| C#CC[n+]1ccc(SCC2=C(C(=O)[O-])N3C(=O)[C@@H](NC(=O)/C(=N\OC)c4csc(N)n4)[C@H]3SC2)cc1 [Example 9, (Z)-7-[a-(2-amino-4-thiazolyl)-a-(methoxyimino)acetamido]-3-[1-propargyl-4-pyridinio]thiomethyl-Δ^3-cephem-4-carboxylate] | 0.1 (≈ 0.184 µM) | ≤ 0.006 | 0.39 (≈ 0.716 µM) | 0.1 (≈ 0.184 µM) | ≤ 0.006 |  |  |
| CC(=O)C[n+]1ccc(SCC2=C(C(=O)[O-])N3C(=O)C(NC(=O)C(=NOCCF)c4csc(N)n4)C3SC2)cc1 (stereo not drawn) [Example 12, (Z)-7-[α-(2-amino-4-thiazolyl)-α-(2-fluoroethoxyimino)acetamidoa-3-[1-acetonyl-4-pyridinio]thiomethyl-Δ^3-cephem-4-carboxylate] | 0.1 (≈ 0.168 µM) | 0.013 (≈ 0.0219 µM) | 0.39 (≈ 0.656 µM) | 0.2 (≈ 0.336 µM) | 0.025 (≈ 0.042 µM) |  |  |
| CO/N=C(\C(=O)N[C@@H]1C(=O)N2C(C(=O)[O-])=C(CSc3cc[n+](Cc4c[nH]cn4)cc3)CS[C@H]12)c1csc(N)n1 [Example 15, (Z)-7-[α-(2-amino-4-thiazolyl)-α-(methoxyimino)acetamido]-3-(1-(4-imidazolyl)methyl-4-pyridinio)thiomethyl-Δ^3-cephem-4-carboxylate] | 0.1 (≈ 0.17 µM) | 0.013 (≈ 0.0222 µM) | 0.39 (≈ 0.665 µM) | 0.2 (≈ 0.341 µM) | 0.013 (≈ 0.0222 µM) |  |  |
| CON=C(C)C[n+]1ccc(SCC2=C(C(=O)[O-])N3C(=O)C(NC(=O)C(=NOC)c4csc(N)n4)C3SC2)cc1 (stereo not drawn) [Example 17, (Z)-7-[α-(2-amino-4-thiazolyl)-α-(methoxyimino)acetamido]-3-(1-(2-methoxyimino-propyl)-4-pyridinio)thiomethyl-Δ^3-cephem-4-carboxylate] | 0.2 (≈ 0.338 µM) | 0.013 (≈ 0.022 µM) | 0.78 (≈ 1.32 µM) | 0.2 (≈ 0.338 µM) | 0.013 (≈ 0.022 µM) |  |  |
| CCCC(=O)C[n+]1ccc(SCC2=C(C(=O)[O-])N3C(=O)C(NC(=O)C(=NOC)c4csc(N)n4)C3SC2)cc1 (stereo not drawn) [Example 20, (Z)-7-[α-(2-Amino-4-thiazolyl)-α-(methoxyimino)acetamido]-3-[(1-(2-oxopentyl)-4-pyridinio]thiomethyl-Δ^3-cephem-4-carboxylate] | 0.1 (≈ 0.169 µM) | ≤ 0.006 | 0.39 (≈ 0.66 µM) | 0.2 (≈ 0.339 µM) | ≤ 0.006 |  |  |
